Reference: article PMC9455983 (International Journal of Molecular Sciences, 2022)

How the values were obtained:
Assay type in all cases: in vivo, mouse
C57BL/6J mice [1] = experiment: Ambulation (locomotor activity) in CLAMS/Oxymax system; conditions: i.c.v.
Description: Respiration rates (in breaths per minute) and animal locomotive activity (as ambulations) were assessed using the Oxymax/CLAMS system (Columbus Instruments, Columbus, OH), as described previously. Mice were habituated to their individual sealed housing chambers for 60 min before testing. Mice were administered 1968-22 (0.3–100 nmol, i.c.v.), morphine (100 nmol, i.c.v.), or vehicle, as indicated, and five min later confined to the CLAMS testing chambers. Pressure monitoring within the sealed chambers measured frequency of respiration. Infrared beams located in the floor measured locomotion as number of beam breaks. Respiration and locomotive data were averaged over 20 min periods for 120 min post-injection of the test compound. Data are presented as % vehicle response ± SEM, ambulation or breaths per minute.

[2] = LC-MS/MS analysis of blood and perfused brain after i.v. administration
Description: To assess the stability of 1968-22 in plasma and evaluate CNS penetration, blood and perfused brains were collected from mice 5, 15, and 30 min after (i.v.) administration of the bis-cyclic guanidine (10 mg/kg, i.v.).
Figure 5 LC-MS/MS analysis of 1968-22 ([…].) in blood and brain samples isolated from treated mice over 30 min. Control mice received vehicle (10% Ethanol/10%Tween-80/80% 0.9% saline) and were harvested immediately. Points are mean AUC ± SEM for the summed ion extracted chromatographs of 1968-22 from three mice/time points.

C57BL/6J mice [3] = experiment: 55 °C warm-water tail-withdrawal assay (antinociception)
Description: For intracerebroventricular (i.c.v.) administration, the 1968-series compounds were dissolved in dimethyl sulfoxide (DMSO), followed by the addition of sterile saline (0.9%) so that the final vehicle was 50% DMSO and 50% saline, and the i.c.v. injections were performed as described previously. For per os (p.o.) administration, 1968-4 and 1968-22 were administered in 10% Ethanol/10%Tween-80/80% 0.9% saline. All solutions for animal administration were prepared fresh daily.
Antinociception was calculated according to the following formula: % antinociception = 100 × (test latency − control latency)/(15 − control latency). Tail-withdrawal data points are the means of 8–16 mice, unless otherwise indicated, with SEM shown by error bars.
All dose–response lines were analyzed by regression, and ED50 (effective dose producing 50% antinociception) values and 95% confidence intervals (C.I.) were determined using individual data points from graded dose–response curves with Prism 8.0 software (GraphPad, La Jolla, CA, USA). Percent antinociception was used to determine within group effects and to allow comparison to baseline latency in tail-withdrawal experiments. The statistical significance of differences between ED50 values was determined by evaluation of the ED50 value shift via nonlinear regression modeling with Prism software. Significant differences in behavioral data were analyzed by ANOVA (one-way or two-way with repeated measures (RM), as appropriate). Significant results were further analyzed with Sidak’s, Tukey’s, or Dunnett’s multiple comparison post hoc tests, as appropriate. Data for conditioned place preference experiments were analyzed by two-way RM ANOVA, with analyses examining the main effect of the conditioned place preference phase (e.g., pre- or post-conditioning) and the interaction of drug pretreatment. Significant effects were further analyzed using Sidak’s HSD post hoc testing. All data are presented as mean ± SEM, with significance set at p < 0.05.

Cc1cc(O)cc(C)c1C[C@H]1CN([C@@H](Cc2c(C)cc(O)cc2C)CN2C(=N)NC[C@@H]2C)C(=N)N1 [1968-22]
effect on ambulation vs vehicle (C57BL/6J mice [1]; 0.3 nmol, 0–20 min): brief reductions in ambulations
effect on ambulation vs vehicle (C57BL/6J mice [1]; 100 nmol): elevated ambulations
effect on ambulation vs vehicle (C57BL/6J mice [1]; 1 or 10 nmol): without significant effect
time detectable / stable in blood after i.v. administration ([2]; 10 mg/kg): at least 30 min
levels in perfused brain by LC-MS/MS ([2]; 10 mg/kg, 5, 15 and 30 min): negligible levels
detection in serum by LC-MS/MS ([2]; 10 mg/kg, within 5 min of administration): readily detected
antinociception after oral administration (in words) (C57BL/6J mice [3]; 10 mg/kg, p.o.): significant antinociception
time of peak antinociception after i.c.v. administration (C57BL/6J mice [3]; i.c.v.): 20 min
ED50 (and 95% Confidence Interval (C.I.)) Values, i.c.v. (nmol) (C57BL/6J mice [3]; i.c.v., antinociception at peak response, mice, * ED50 estimated where maximum antinociception not achieved): 0.011 (0.005–0.026) nmol
duration of significant antinociception (C57BL/6J mice [3]; i.c.v., maximum doses tested): 70 min
